“Also recorded” adds a separate entry of the source. Read-outs that look alike come from different tables or passages of the source. Marks after values point to notes of the source that are not given here.
Key:
[1] = tested on: porcine cerebral arteries; assay: L-arginine-induced relaxation in LPS-incubated cerebral arteries without endothelial cells; settings: LPS 10 μg/ml 20 hours, concomitant 60 μM, U-46619 tone
Method: In vitro tissue bath studies. The arterial segment (4 mm long) of the circle of Willis was dissected and cannulated with a stainless-steel rod (30-28 gauge) of hemispherical section, and a short piece of platinum wire, and mounted horizontally in a plastic tissue bath containing 6 ml of Krebs' bicarbonate solution. The platinum wire was bent into a U shape and anchored to a gate. The stainless-steel rod was connected to a stain gauge transducer (UC3, available from Gould) for isometric recording of changes in force. The temperature of Krebs' solution in the tissue baths, equilibrated with 95% O2 and 5% CO2, was maintained at 37° C. Tissues were equilibrated in the Krebs' solution for an initial 30 minutes and were mechanically stretched to a resting tension of 0.75 g for another 30 minutes. The segments of the circle of Willis were precontracted with 9,11-dideoxy-9α,11α-epoxymethanoprostagladin F2α(U-46619, 1 μM) to induce an active muscle tone of 0.5-0.75 g. Experimental drugs such as L-arginine and Oroxylin A of various concentrations, and TNS at 2,4,8 Hz were applied to induce relaxation. The arteries were then washed with pre-warmed Krebs' solution. […] Stimulation parameters were continuously monitored on a Tektronix oscilloscope. […] The magnitude of a vasodilator response induced by experimental drugs and TNS was expressed as a percentage of the maximum response induced by PPV. […]

[2] = tested on: porcine cerebral arteries; assay: In vitro tissue bath vasorelaxation of precontracted porcine cerebral arteries; settings: for EC50: Sus scrofa; for U-46619-induced active muscle tone: 0.1-30 μM
[3] = tested on: LPS-induced NO production in RAW264.7 macrophages; assay: LPS-induced nitrite (NO) production in RAW264.7 macrophages, Griess reaction; format: cell-based, mouse; settings: 5, 10 or 20 μg/ml together with 100 ng/ml LPS for 24 hours
Method: Cells. RAW264.7, a mouse macrophage cell line, was obtained from American Type Culture Collection. Cells were cultured in RPMI-1640 medium (available from Gibco Life Technology, in Gaithersburg, Md.) supplemented with 2 mM L-glutamine, antibiotics (100 units/ml penicillin-A and 100 units/ml streptomycin) and 10% heat-inactivated fetal bovine serum (Gibco/BRL) and maintained at 37° C in a humidified incubator containing 5% CO2.
Nitrite assay. The nitrite concentration in the medium was measured as an indicator of NO production according to the Griess reaction (Kim et al., J. Immunol. 153: 4741-4748). One hundred microliters of each supernatant was. mixed with the same volume of Griess reagent (1% sulfanilamide in 5% phosphoric acid and 0. 1% naphthylethylenediamine dihydrochloride in water); absorbency of the mixture at 550 nm was determined with an enzyme-linked immunosorbent assay plate reader (Dynatech MR-7000; Dynatech Labs, Chantilly, Va.).
The effects of flavonoids, ellagitannins, anthraquinones on LPS-induced NO production in macrophages were studied as follows. The chemical structures of two flavonoids (myricitrin, N1; oroxylin A, N2) four ellagitannins (penta-O-galloyl-β-glucopyranose, N3; woodfordin C, N4; onothein B, N5; cuphiin, N6), and two anthraquinones (emodin, N7; physcion, N8) that were used in the present study were shown in FIG. 1. The effects of these eight compounds on NO production in RAW264.7 macrophages were investigated. The accumulated nitrite in the culture medium was used as an index for NO synthesis from these cells. […]

[4] = conclusion from blocker experiments

## COc1c(O)cc2oc(-c3ccccc3)cc(=O)c2c1O [oroxylin A, 5,7-dihydroxy-6-methoxy flavone]
[1]
  LPS-rendered L-Arginine-induced relaxation: significantly decreased
[2]; 60 μM, KCl (80 mM)-pre-contracted arterial rings, n=5
  transient relaxation: 20.2±1.63 % of PPV-induced maximum relaxation
[2]; 60 μM, same arteries contracted with U-46619, n=5
  relaxation: 95.1±4.31 % of PPV-induced maximum relaxation
[2]; 80 mM KCl, 1-60 μM, with or without endothelial cells
  sustained relaxation in KCl-precontracted arteries: did not induce sustained relaxation; also recorded: failed to induce sustained relaxation
[2]; Oroxylin A 3 μM, after 4-AP (10 mM)
  Percent of Maximum Control Relaxation: 1.8 ± 1.6%
[2]; Oroxylin A 3 μM, after ETI (10 μM)
  Percent of Maximum Control Relaxation: 21.4 ± 2.1%
[2]; Oroxylin A 3 μM, after GLP (30 μM)
  Percent of Maximum Control Relaxation: 24.6 ± 3.4%
[2]; Oroxylin A 3 μM, after IBT (100 nM)
  Percent of Maximum Control Relaxation: 16.8 ± 3.1%
[2]; Oroxylin A 3 μM, after INDO (30 μM)
  Percent of Maximum Control Relaxation: 23.0 ± 1.8%
[2]; Oroxylin A 3 μM, after L-NNA (60 μM)
  Percent of Maximum Control Relaxation: 26.9 ± 3.4%
[2]; Oroxylin A 3 μM, after MCN (5 μM)
  Percent of Maximum Control Relaxation: 21.2 ± 3.4%
[2]; Oroxylin A 3 μM, after TEA (1 mM)
  Percent of Maximum Control Relaxation: 7.1 ± 3.0%
[2]; Oroxylin A 3 μM, after TEA (10 mM)
  Percent of Maximum Control Relaxation: 0** Percent
[2]; Oroxylin A 3 μM, control (no inhibitor), n=12
  Percent of Maximum Control Relaxation: 24.6 ± 1.9%
[2]; Oroxylin A 10 μM, after 4-AP (10 mM)
  Percent of Maximum Control Relaxation: 9.7 ± 2.0%
[2]; Oroxylin A 10 μM, after ETI (10 μM)
  Percent of Maximum Control Relaxation: 41.3 ± 4.4%
[2]; Oroxylin A 10 μM, after GLP (30 μM)
  Percent of Maximum Control Relaxation: 46.5 ± 7.1%
[2]; Oroxylin A 10 μM, after IBT (100 nM)
  Percent of Maximum Control Relaxation: 30.8 ± 5.2%
[2]; Oroxylin A 10 μM, after INDO (30 μM)
  Percent of Maximum Control Relaxation: 41.8 ± 5.6%
[2]; Oroxylin A 10 μM, after L-NNA (60 μM)
  Percent of Maximum Control Relaxation: 45.3 ± 6.0%
[2]; Oroxylin A 10 μM, after MCN (5 μM)
  Percent of Maximum Control Relaxation: 37.4 ± 4.5%
[2]; Oroxylin A 10 μM, after TEA (1 mM)
  Percent of Maximum Control Relaxation: 31.5 ± 6.6%
[2]; Oroxylin A 10 μM, after TEA (10 mM)
  Percent of Maximum Control Relaxation: 4.87 ± 1.5%
[2]; Oroxylin A 10 μM, control (no inhibitor), n=12
  Percent of Maximum Control Relaxation: 49.0 ± 3.4%
[2]; Oroxylin A 30 μM, after 4-AP (10 mM)
  Percent of Maximum Control Relaxation: 28.4 ± 6.7%
[2]; Oroxylin A 30 μM, after ETI (10 μM)
  Percent of Maximum Control Relaxation: 91.4 ± 1.5%
[2]; Oroxylin A 30 μM, after GLP (30 μM)
  Percent of Maximum Control Relaxation: 84.2 ± 7.1%
[2]; Oroxylin A 30 μM, after IBT (100 nM)
  Percent of Maximum Control Relaxation: 68.1 ± 7.2%
[2]; Oroxylin A 30 μM, after INDO (30 μM)
  Percent of Maximum Control Relaxation: 89.1 ± 3.6%
[2]; Oroxylin A 30 μM, after L-NNA (60 μM)
  Percent of Maximum Control Relaxation: 91.9 ± 2.8%
[2]; Oroxylin A 30 μM, after MCN (5 μM)
  Percent of Maximum Control Relaxation: 87.2 ± 2.6%
[2]; Oroxylin A 30 μM, after TEA (1 mM)
  Percent of Maximum Control Relaxation: 58.6 ± 6.7%
[2]; Oroxylin A 30 μM, after TEA (10 mM)
  Percent of Maximum Control Relaxation: 16.3 ± 2.0%
[2]; Oroxylin A 30 μM, control (no inhibitor), n=12
  Percent of Maximum Control Relaxation: 86.0 ± 2.6%
[2]; after ETI (10 μM), read-out: EC50
  EC50: 8.1 µM
[2]; after GLP (30 μM), read-out: EC50
  EC50: 11.2 µM
[2]; after IBT (100 nM), read-out: EC50
  EC50: 15 µM
[2]; after INDO (30 μM), read-out: EC50
  EC50: 10 µM
[2]; after L-NNA (60 μM), read-out: EC50
  EC50: 11.4 µM
[2]; after MCN (5 μM), read-out: EC50
  EC50: 10.5 µM
[2]; after TEA (1 mM), read-out: EC50
  EC50: 21.5 µM
[2]; after TEA (10 mM), read-out: EC50
  EC50: 39.3 µM
[2]; control (no inhibitor), n=12, read-out: EC50
  EC50: 8.4 µM
[2]; endothelium-denuded arteries, U-46619, n=12, read-out: EC50 of relaxation
  EC50: 8.4 µM
[2]; intact endothelium, pre-contracted with U-46619 (1 μM), n=4, read-out: EC50 of relaxation
  EC50: 7.9 µM
[2]; U-46619 (1 μM)
  U-46619-induced active muscle tone: concentration-dependant inhibition
[2]; U-46619 (1 μM), listed as Oroxylin A
  U-46619-induced active muscle tone: in a concentration-dependent manner decreased
[2]; [4]
  Ca2+-activated K+ channel opening: is a Ca^2+— activated K^+ channel opener
  KATP channel opening: is not a KATP channel opener
[2]; intact endothelium, U-46619 (1 μM)
  concentration at which maximum relaxation was achieved: 30 µM
[3]
  LPS-induced nitrite production: significant inhibition

From patent US6806257B1, “Flavones as inducible nitric oxide synthase inhibitors, cyclooxygenase-2 inhibitors and potassium channel activators” (priority 1999, dated 2004)
